Data published in patent US20260139017A1, “COMPOSITIONS AND METHODS USING REELIN IN ALZHEIMER'S DISEASE” (The General Hospital Corporation, priority 2022, published 2026).

Legend:
[1] = Heparin HPLC, peak retention time in KCl elution; assay type: binding; settings: isocratic 1M KCl elution, long and short peptides
Procedure: […] 50 μl of 0.3 μg/μL uncleaved or cleaved WT Reelin peptide was used at 0.3 ml/min in 0.15MKCl, 10 mM PBS. 0-13.5 min: 0.15M KCl to load sample, 13.5-14.5 min: ramp to 0.5M KCl, 14.5-24.5 min: 0.5-1M KCl gradient (ramp), 24.5-45 min: 1M KCl (isocratic elution), 45-55 min: 1M KCl at 0.6 ml/min (wash), 55.0-56.0 min: ramp to 0.15M KCl at 0.3 ml/min, 56.0-59.0 min: 0.15M KCl (reset column). Fluorescence Intensities were measured at an excitation wavelength of 260 nm and emission wavelength of 290 nm, based on fluorescence properties of aromatic amino acids. To assess fluorescence properties of peptides, 15 ul of ˜0.6 ug/mL of peptide was diluted in 500 μL of 0.15MKCl, 10 mM PBS, and peak excitation and emission of peptides was calculated from the 2D graphical data.
The column chromatography method was adapted from previous research from the laboratory (2). Based on the column chromatography data, the initial protocol used a NaCl gradient from 0-1 M and a 5M salt wash to reset the HPLC column. However, the high salt gradient was corrosive to the HPLC machine parts. Therefore, KCl was considered because the […]. A lower molar concentration of a buffer with KCl could be used to disrupt heparin—Reelin CTR interactions compared to NaCl to help keep the HPLC pumps free of residual salts and potential corrosion. Since a lower concentration of salt was used, the amount of time needed at an […] hold of 1M KCl was extended until the peptide signal could not be detected before the column was equilibrated for the next sample.

[2] = Isothermal titration calorimetry (ITC) of CTR-RELN with heparin; assay type: binding; settings: titrated with 5 μM heparin, vs WT
APOER2 = target: T1, APOER2 (Homo sapiens, UniProt Q14114); assay: ELISA cell-free binding of RELN variants to ApoEr2
T1 construct: purchased OnGene (so in the source)
T1 sequence (Q14114 33-963): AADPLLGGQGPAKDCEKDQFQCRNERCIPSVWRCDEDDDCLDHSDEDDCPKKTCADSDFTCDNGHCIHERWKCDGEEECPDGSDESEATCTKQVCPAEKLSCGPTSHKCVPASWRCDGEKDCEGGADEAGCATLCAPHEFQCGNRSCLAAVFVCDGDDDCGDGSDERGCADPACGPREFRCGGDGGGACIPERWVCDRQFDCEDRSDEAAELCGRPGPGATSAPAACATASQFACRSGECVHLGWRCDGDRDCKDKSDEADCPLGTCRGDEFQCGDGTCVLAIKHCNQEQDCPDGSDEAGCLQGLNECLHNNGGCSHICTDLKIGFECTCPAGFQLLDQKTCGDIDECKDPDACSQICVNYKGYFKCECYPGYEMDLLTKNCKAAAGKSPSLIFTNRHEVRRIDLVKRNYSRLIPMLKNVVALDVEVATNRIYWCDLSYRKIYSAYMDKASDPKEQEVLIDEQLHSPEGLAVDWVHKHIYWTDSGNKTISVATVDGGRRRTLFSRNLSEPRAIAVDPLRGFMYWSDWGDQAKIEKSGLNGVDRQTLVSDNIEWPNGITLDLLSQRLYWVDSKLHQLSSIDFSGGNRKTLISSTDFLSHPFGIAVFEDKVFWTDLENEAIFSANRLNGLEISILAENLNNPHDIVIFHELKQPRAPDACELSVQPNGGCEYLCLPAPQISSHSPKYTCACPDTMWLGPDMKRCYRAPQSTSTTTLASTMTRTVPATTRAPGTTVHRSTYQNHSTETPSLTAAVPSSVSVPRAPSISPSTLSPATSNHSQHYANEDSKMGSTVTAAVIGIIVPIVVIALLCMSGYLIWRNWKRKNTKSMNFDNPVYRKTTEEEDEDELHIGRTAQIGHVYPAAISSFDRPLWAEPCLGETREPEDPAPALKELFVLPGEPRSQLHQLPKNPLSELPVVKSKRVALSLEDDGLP
Procedure: Enzyme-linked immunosorbent assay (ELISA) was used to quantify changes in binding of RELN variants (media-derived full-length or CTR-RELN) to either VLDLr or ApoEr2 following an optimized version of a previously published protocol (6). Briefly, ELISA strips (DY008, R&D Systems) were coated with one ng/μL (100 μL/well) of VLDLr (8444-VL, R&D) or ApoEr2 (TP320903, OnGene) receptors diluted in 25 mM Tris HCl, 140 mM NaCl, […], two mM CaCl2), pH 7.4 (TBS-C buffer). After 18 h at four ° C. incubation, plates were blocked one h with three % BSA (22070008-6, Bioworld), 0.05% Tween-20 (Sigma Aldrich) TBS-C buffer. We assessed binding via incubation with 100 μL/well of serial dilutions of recombinant RELN protein (Ser1221-Gln2666, 8546-MR-050, R&D) or RELN variants in TBS-C buffer for one hour at room temperature. For detection, we used goat anti-mouse RELN primary antibody (LS-C793521-100, LS-Bio, 1:2,000, 100 μL/well) as primary antibody for one h at R.T. and (1:10,000; 100 μL/well, donkey anti-goat IgG H&L, HRP, ab6885, Abcam) as secondary antibody for 30 min. at R.T. Between each of the previous steps, plates were washed four times with TBS-C buffer (200 μL/well). Plates were washed three times prior to initiating the colorimetric reaction (DY008, R&D Systems). Stop solution (50 μL/well, DY008, R&D Systems) was added upon five min. incubation and the absorbance of the samples was measured at 450 nm using the Synergy 2 microplate reader (BioTek Instruments). Processing and analysis of the data was done using Gen5 1.11 software and GraphPad Prism, respectively.

RKQNYMMNFSRQHGLRRFYNRRRRSLRRYP [CTR-RELN H3447R]
peak retention time on heparin HPLC ([1]; listed as H3447R): increased later peak retention times | peak retention time on heparin HPLC ([1]; listed as H3447R Reelin): significantly later peak retention time | peak retention time on heparin HPLC ([1]; listed as RELN H3447R): delayed peak times | thermodynamics of heparin interaction [2]: enhanced interactions | binding to APOER2 (APOER2): unable to bind directly
